Data as given in patent US8969336B2, “Diamino heterocyclic carboxamide compound” (Astellas Pharma Inc., priority 2009, dated 2015).

Key:
[1] = test system: BA/F3 cells expressing EML4-ALK fusion protein v1; assay: Growth inhibitory activity against EML4-ALK fusion protein-dependent cells; type: cell-based, mouse; conditions: growth of EML4-ALK fusion protein v1-expressing BA/F3 cells, cultured 2 days
Description: EML4-ALK fusion protein v1-expressing BA/F3 cells can grow in the absence of IL-3. In other words, they are cells that EML4-ALK fusion protein v1-dependently grow.
In a 96-well plate (Iwaki), BA/F3 cells expressing EML4-ALK fusion protein v1 were seeded at 500 cells per well in RPMI1640 medium (Invitrogen) containing 10% fetal bovine serum, followed by addition of a test compound (final concentration: 10 μM to 0.1 nM). As a negative control, DMSO used as a solvent of the test compound was added. Then, the cells were cultured under 5% CO2 at 37° C. for 2 days. A cell counting reagent (AlmarBlue; Biosource) was added, and the cells were cultured for 150 minutes, followed by measurement of fluorescence intensity with a […] (Safire; Tecan) in accordance with instructions attached to the reagent.

[2] = molecular target: EML4-ALK fusion protein v1 (Homo sapiens (Human), UniProt Q9UM73); assay: Inhibitory activity against the kinase activity of EML4-ALK fusion protein (HTRF KinEASE-TK); type: biochemical; conditions: ATP 100 μM, reaction 1 hour
Excerpt: A recombinant retrovirus was created from expression plasmid FLAG-EML4-ALKv1/pMX-iresCD8 in which cDNA for EML4-ALK fusion protein v1 was integrated, and injected into mouse lymphoid cell line BA/F3 cells. Using a magnetic bead reagent for cell separation and a purification column (anti-CD8 monoclonal antibody immobilized on magnetic beads and a MiniMACS purification column; both are products of Miltenyi Biotec Inc.), cell surface CD8-expressing cells were purified to establish EML4-ALK fusion protein v1-expressing BA/F3 cells. From the cells, EML4-ALK fusion protein v1 was purified and subjected to kinase activity evaluation. EML4-ALK fusion protein v1 was investigated for its phosphorylation activity toward a peptide substrate by using a kinase activity detection kit (HTRF KinEASE-TK; Cisbio Inc.). […] The ATP concentration used was 100 μM.

[3] = test system: EML4-ALK fusion protein v1 expressing 3T3 cells; assay: Antitumor test (in vivo) on EML4-ALK fusion protein v1 expressing 3T3 cells; conditions: oral 10 mg/kg once a day for 5 days, Balb/c nude mice, EML4-ALK v1 3T3 tumor; for rate of regression (tumor volume): values marked (regression)
Excerpt: Expression plasmid EML4-ALKv1/pMXS in which cDNA for EML4-ALK fusion protein v1 was integrated was trasfected into 3T3 fibroblast cells by the phosphate calcium method to thereby establish EML4-ALK fusion protein v1 expressing 3T3 cells. 3×10^6 cells of EML4-ALK fusion protein v1 expressing 3T3 cells suspended in PBS were inoculated subcutaneously by injection to the back of 5 weeks old male Balb/c nude mice (Charles River Japan, Inc.). After 7 days of the inoculation, the administration of test compound was initiated. The test was conducted in the solvent group and the compound group, 4 animals per group. The test compound was suspended in a solvent composed of 0.5% methylcellulose and administered orally at a dose of 10 mg/kg. Administrations were performed once a day for 5 days, and body weight and tumor size were measured every other day. Tumor volume was calculated using the following formula. [Tumor volume(mm^3)]=[Tumor major axis(mm)]×[tumor minor axis(mm)]^2×0.5
When regression of tumor volume is induced from the day of starting administration, the tumor volume on the day of starting administration and the state in which the tumor disappeared were assumed to be 0% regression and 100% regression, respectively, and the rate of regression of the test compound was calculated.

[4] = test system: human non-small cell lung cancers cell line NCI-H2228 cells; assay: Antitumor test (in vivo) on NCI-H2228 cells; conditions: oral administration, NOD/SCID mice, Student's t-test
Excerpt: The antitumor effects on EML4-ALK fusion protein-dependent cells can also be confirmed by use of human non-small cell lung cancers cell line NCI-H2228 cells (cells derived from EML4-ALK fusion polynucleotide-positive lung cancer patients (EML4-ALK fusion protein v3-dependent cells)) in place of the EML4-ALK fusion protein v1 expressing 3T3 cells of Test Example 3, as shown below.
3×10^6 cells of NCI-H2228 cells suspended in 50% Matrigel (Invitrogen) were inoculated subcutaneously by injection to the back of 5 weeks old male NOD/SCID mice (Charles River Japan, Inc.). After 3 weeks of the inoculation, the administration of test compounds was initiated. The test was conducted in the solvent group and test compound groups, 6 animals per group. The test compounds were each dissolved in a solvent composed of 10% 1-methyl-2-pyrrolidinone (SIGMA-ALDRICH Inc.)/90% polyethylene glycol 300 (Fluka Inc.) and administered orally at a dose of 1 mg/kg. Administrations were performed once a day for 14 days, and body weight and tumor size were measured every other day. Tumor volume was calculated using the following formula. [Tumor volume(mm^3)]=[Tumor major axis(mm)]×[tumor minor axis(mm)]^2×0.5

Sequence of EML4-ALK fusion protein v1 (Q9UM73 other isoform, or with tags, fused parts or gaps): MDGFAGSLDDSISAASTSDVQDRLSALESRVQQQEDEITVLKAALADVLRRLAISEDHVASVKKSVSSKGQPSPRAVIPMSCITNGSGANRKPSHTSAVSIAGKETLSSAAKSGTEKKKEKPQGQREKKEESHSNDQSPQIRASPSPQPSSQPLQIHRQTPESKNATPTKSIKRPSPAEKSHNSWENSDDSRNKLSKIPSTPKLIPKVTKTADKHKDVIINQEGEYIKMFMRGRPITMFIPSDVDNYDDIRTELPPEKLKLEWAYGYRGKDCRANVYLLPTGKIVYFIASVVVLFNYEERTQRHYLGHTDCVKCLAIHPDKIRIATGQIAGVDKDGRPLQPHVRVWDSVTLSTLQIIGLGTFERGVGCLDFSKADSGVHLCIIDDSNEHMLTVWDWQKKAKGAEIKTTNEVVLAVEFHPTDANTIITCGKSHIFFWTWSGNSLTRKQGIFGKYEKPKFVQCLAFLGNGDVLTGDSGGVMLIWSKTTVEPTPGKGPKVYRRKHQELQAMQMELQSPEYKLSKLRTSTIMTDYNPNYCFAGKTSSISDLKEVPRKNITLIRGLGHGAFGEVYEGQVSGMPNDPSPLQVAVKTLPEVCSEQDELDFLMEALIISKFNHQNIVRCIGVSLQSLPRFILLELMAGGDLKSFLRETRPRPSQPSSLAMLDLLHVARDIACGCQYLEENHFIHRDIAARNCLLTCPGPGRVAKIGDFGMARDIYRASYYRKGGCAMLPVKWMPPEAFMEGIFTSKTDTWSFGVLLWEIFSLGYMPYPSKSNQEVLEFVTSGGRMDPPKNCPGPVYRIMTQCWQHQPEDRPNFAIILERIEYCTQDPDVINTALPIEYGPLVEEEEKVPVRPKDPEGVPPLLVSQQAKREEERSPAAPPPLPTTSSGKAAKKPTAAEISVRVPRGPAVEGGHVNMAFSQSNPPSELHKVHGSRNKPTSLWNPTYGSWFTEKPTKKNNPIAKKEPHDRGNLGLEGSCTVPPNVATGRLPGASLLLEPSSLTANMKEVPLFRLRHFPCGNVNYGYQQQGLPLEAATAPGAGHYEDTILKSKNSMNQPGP

Compound	IC50 ([1]; Mus musculus, BaF3, 48 h) [nM]	IC50 [2] [nM]	IC50 [1] [nM]	inhibition rate (tumor volume) [3] [%]	growth inhibition against NCI-H2228 cells (tumor) compared with the solvent group [4]	rate of regression (tumor volume) [3]
CCc1nc(C(N)=O)c(Nc2ccc3cnn(C)c3c2)nc1N[C@H]1CC[C@H](O)CC1 [Example 328]	76	–	–	–	–	–
CCc1nc(C(N)=O)c(Nc2ccc(N3CCN(C)CC3)c(F)c2)nc1NC1CCOCC1 [Example 550]	39	11	–	–	–	–
CCc1nc(C(N)=O)c(Nc2ccc(N3CCC(N4CCN(C)CC4)CC3)cc2)nc1N[C@H]1CC[C@H](O)CC1 [Example 341]	11	2.8	–	–	–	–
CCc1nc(C(N)=O)c(Nc2ccc(N3CCN(C)CC3)c(C(F)(F)F)c2)nc1N[C@H]1CC[C@H](O)CC1 [Example 354]	8.6	0.77	–	–	–	–
CCc1nc(C(N)=O)c(Nc2ccc(N3CCC(N4CCN(C)CC4)CC3)c(C)c2)nc1NC1CCC(O)(C(C)C)CC1 (stereo not drawn) [Example 493]	–	2.6	19	–	–	–
CCc1nc(C(N)=O)c(Nc2ccc(N3CCC(N4CCN(C)CC4)CC3)c(C)c2)nc1NC1CCC(O)(C(C)C)CC1 (stereo not drawn) [Example 494]	–	4.1	42	–	–	–
CCc1nc(C(N)=O)c(Nc2ccc(N3CCC(N4CCN(C)CC4)CC3)c(C)c2)nc1N[C@H]1CC[C@H](O)CC1 [Example 378]	6.1	0.26	–	92	–	–
CCc1nc(C(N)=O)c(Nc2cccc(C)c2)nc1NCCN(C)C [Compound Y, 5-{[2-(dimethylamino)ethyl]amino}-6-ethyl-3-[(3-methylphenyl)amino]pyrazine-2-carboxamide, reference compound]	> 1000	> 1000	–	–	no significant growth inhibition	–
CCc1nc(C(N)=O)c(Nc2ccc(N3CCC(N4CCN(C)CC4)CC3)c(C)c2)nc1N[C@H]1CC[C@](C)(O)CC1 [Example 466]	9.3	0.93	–	–	–	54 (regression) %
CCc1nc(C(N)=O)c(Nc2ccc(N3CCC(N4CCN(C)CC4)CC3)cc2OC)nc1N[C@H]1CC[C@H](O)CC1 [Example 284]	85	8.9	–	–	–	–
CCc1nc(C(N)=O)c(Nc2ccc(N3CCC(N4CCN(C)CC4)CC3)c(OC)c2)nc1N[C@H]1CC[C@H](O)CC1 [Example 340]	9.5	0.37	–	–	–	–
CCc1nc(C(N)=O)c(Nc2ccc(N3CCC(N4CCN(C)CC4)CC3)c(OC)c2)nc1NC1CCOCC1 [Example 547]	5.7	–	–	–	–	–
Cc1cc(Nc2nc(N[C@H]3CC[C@H](O)CC3)c(Cl)nc2C(N)=O)ccc1N1CCC(N2CCN(C)CC2)CC1 [Example 538]	7.7	2.3	–	–	–	–
CCc1nc(C(N)=O)c(Nc2ccc(OC)c(N3CCN(C)CC3)c2)nc1N[C@H]1CC[C@H](O)CC1 [Example 383]	5.9	0.23	–	–	–	–
CCc1nc(C(N)=O)c(Nc2ccc(N3CCN(C)CC3)cc2)nc1NC1CCOCC1 [Example 545]	25	11	–	–	–	–
CCc1nc(C(N)=O)c(Nc2ccc(N3CCN(C4CCN(C)CC4)CC3)c(C)c2)nc1NC1CCOCC1 [Example 558]	16	2.2	–	–	–	37 (regression) %
CC(C)c1nc(C(N)=O)c(Nc2ccc(N3CCC(N4CCN(C)CC4)CC3)c(C(F)(F)F)c2)nc1N[C@H]1CC[C@H](O)CC1 [Example 388]	4.1	0.17	–	–	–	–
CCc1nc(C(N)=O)c(Nc2ccc(N3CCC(N4CCN(C)CC4)CC3)c(C)c2)nc1NC1CCOCC1 [Example 512]	19	1.5	–	–	–	–

Compound	IC50 ([1]; Mus musculus, BaF3, 48 h) [nM]	IC50 [2] [nM]	IC50 [1] [nM]	inhibition rate (tumor volume) [3] [%]	growth inhibition against NCI-H2228 cells (tumor) compared with the solvent group [4]	rate of regression (tumor volume) [3]
CCOc1cc(Nc2nc(N[C@H]3CC[C@H](O)CC3)c(CC)nc2C(N)=O)ccc1N1CCC(N2CCN(C)CC2)CC1 [Example 459]	8.1	0.26	–	–	–	–
CCc1nc(C(N)=O)c(Nc2ccc(N3CCC(N(C)C)C3)c(C(F)(F)F)c2)nc1N[C@H]1CC[C@H](O)CC1 (stereo partly drawn) [Example 406]	9.8	0.34	–	–	–	–
CCc1nc(C(N)=O)c(Nc2ccc(N3CCN(C(C)C)CC3)c(C)c2)nc1N[C@H]1CC[C@H](O)CC1 [Example 426]	11	0.49	–	81	–	–
CCc1nc(C(N)=O)c(Nc2ccc(N3CCN(C)CC3)c(C)c2)nc1N[C@H]1CC[C@@](C)(O)CC1 [Example 391]	6.5	0.22	–	–	–	–
CCc1nc(C(N)=O)c(Nc2ccc(N3CCN(C)CC3)c(OC)c2)nc1N[C@H]1CC[C@H](O)CC1 [Example 355]	9.2	0.33	–	–	–	–
CC(C)c1nc(C(N)=O)c(Nc2ccc(N3CCN(C)CC3)cc2)nc1N[C@H]1CC[C@H](O)CC1 [Example 343, 5-[(trans-4-hydroxycyclohexyl)amino]-6-isopropyl-3-{[4-(4-methylpiperazin-1-yl)phenyl]amino}pyrazine-2-carboxamide]	11	2.1	–	–	–	–
COc1cc(Nc2nc(NC3CCOCC3)c(C(C)C)nc2C(N)=O)ccc1N1CCN(C)CC1 [Example 553]	–	–	–	63	–	–
CCc1nc(C(N)=O)c(Nc2ccc(N3CCN(C)CC3)cc2)nc1N[C@H]1CC[C@H](O)CC1 [Example 325]	20	5.3	–	–	–	–
CCc1nc(C(N)=O)c(Nc2ccc(N3CCC(N4CCN(C)CC4)CC3)cc2)nc1NC1CCOCC1 [Example 546]	23	7.8	–	79	–	–
CCc1nc(C(N)=O)c(Nc2ccc(N3CCC(N4CCN(C)CC4)CC3)c(C)c2)nc1N[C@H]1CC[C@@](C)(O)CC1 [Example 392]	6.3	0.21	–	–	–	28 (regression) %
CC(C)c1nc(C(N)=O)c(Nc2ccc(N3CCN(C)CC3)cc2)nc1NC1CCOCC1 [Example 554]	14	4.5	–	–	–	–
CCc1nc(C(N)=O)c(Nc2ccc(N3CCC(N4CCN(C)CC4)CC3)c(C)c2)nc1NC1CCC(O)(CC)CC1 (stereo not drawn) [Example 490]	18	3.1	–	–	–	–
CCc1nc(C(N)=O)c(Nc2ccc(N3CCN(CC4CC4)CC3)c(C(F)(F)F)c2)nc1N[C@H]1CC[C@H](O)CC1 [Example 399]	11	0.94	–	–	–	–
CCc1nc(C(N)=O)c(Nc2cccc(S(C)(=O)=O)c2)nc1N[C@H]1CC[C@H](O)CC1 [Example 86]	68	17	–	–	–	–
CCc1nc(C(N)=O)c(Nc2ccc(N3CCC(N4CCN(C)CC4)CC3)c(C)c2)nc1NC1CCC(O)(CC)CC1 (stereo not drawn) [Example 491]	–	2.8	16	–	–	–
CCc1nc(C(N)=O)c(Nc2ccc(N3CCC(N4CCN(C)CC4)CC3)c(C(F)(F)F)c2)nc1N[C@H]1CC[C@H](O)CC1 [Example 370]	4.9	0.65	–	81	–	–
CCc1nc(C(N)=O)c(Nc2ccc(N3CCN(C)CC3)c(C)c2)nc1N[C@H]1CC[C@H](O)CC1 [Example 377]	6.9	0.24	–	–	–	–
